Calls of active or inactive are those of the source. No rule for the calls is given here.

For one experiment, the system named is D54 LucT luciferase reporter (no NLG), luminescence, 24 h. The experiment can be described thus: nonspecific luciferase activators in D54 LucT cells, dose response, counter-screen for N-linked glycosylation inhibitor project, cell-based, dry powder, set 2 (AID 1053120).
Conditions: not given
For orientation: Counterscreens check selectivity or assay interference.
Consider `Cc1ccc(/C=N/NC(=O)C2COc3ccccc3O2)s1` (configuration not stated), for which the AC40 is 15.3 µM.
For `COc1cc(-c2nnc(SCC3(c4ccc(Br)cc4)OCCO3)o2)cc(OC)c1OC`, the AC40 was 0.93 µM.
The same measure, in the same setting: the figure for `COc1ccccc1CSc1nnc(-c2ccccc2)o1` is 0.845 µM.
As to `O=C(N/N=C/c1ccc(Cl)cc1)c1sccc1OCc1ccc(F)cc1`, the AC40 is 1.6 µM.
For the compound `COc1ccc(-c2nnc(SCc3ccccc3)o2)cc1`, the AC40 was 5.12 µM.
As for `COc1ccccc1-c1nnc(SCc2ccccc2)o1`, the AC40 was 0.632 µM.
On to `Nc1nc(=S)c2ncn([C@@H]3O[C@H](CO)[C@@H](O)[C@H]3O)c2[nH]1`, for which the AC40 was 5.19 µM.
The same measure, in the same setting: for `CCOC(=O)c1ccc(Oc2cc(C)nc(SC)n2)cc1` the value was 3.39 µM; for `CCCNS(=O)(=O)c1cccc(C(=O)OCc2cc(=O)oc3cc(OC)ccc23)c1`, 2.14 µM; for `COC(=O)c1cn(C(=O)c2ccc(OC)cc2)c2ccccc12`, 15.4 µM.

System in another experiment: not listed separately
The experiment is described as above. The following applies: D54 LucT luciferase reporter (no NLG), luminescence, 24 h; at 19.5 µM (top of the series). (In general: In a reporter assay the amount or activity of a reporter protein is the signal.)
For the compound `Cc1ccc(NC(=O)c2cc(S(=O)(=O)N(C)C)ccc2N2CCCC2)cc1`, the luciferase activation is 0% (inactive).
On to `CCOc1ccc(S(=O)(=O)NCc2ccccn2)cc1NC(=O)c1ccccc1F`, for which the luciferase activation is 0% (inactive).
The same measure, in the same setting: for `CN(C)S(=O)(=O)c1ccc(N2CCCC2)c(C(=O)Nc2nc3ccccc3s2)c1` the value was 0% (inactive); for `COc1cccc2sc(NC(=O)c3cc(S(=O)(=O)N(C)C)ccc3N3CCCC3)nc12`, -50% (inactive); for `CN(C)CCCN(Cc1cc2ccccc2[nH]c1=O)C(=O)Nc1ccccc1`, 20% (inactive).
The same measure, in the same setting: for `CCC1=Nc2cc(C(=O)NCCCOC)ccc2Sc2ccccc21` the value was -33.3% (inactive); for `COc1ccc(NC(=O)C(=O)c2cn(CC(=O)N3CCCC3)c3ccccc23)cc1`, -33.3% (inactive).
Take `COc1ccc2sc(NC(=O)c3cc(S(=O)(=O)N(C)C)ccc3N3CCCC3)nc2c1`: the luciferase activation was -50% (inactive).
On the same count and under the same terms, the figure for `C/C(=N\NC(=O)c1c([N+](=O)[O-])c(C)nn1C)c1ccc(NC(=O)C2CCCC2)cc1` is 0% (inactive); for `CN(C)S(=O)(=O)c1ccc(N2CCCC2)c(C(=O)Nc2nccs2)c1` it is 20% (inactive).
With `CCN(CC)CCCNc1nc2cc(OC)c(OC)cc2c2nc(-c3ccccc3)nn12`, the luciferase activation was -33.3% (inactive).
Take `O=C1CCNc2cc3ccccc3cc21`: the luciferase activation was -66.7% (inactive).
`COc1ccccc1OCC(=O)NNC(=O)c1ccoc1C`: the luciferase activation was 33.3% (inactive).
With `CCOc1ccc(NC(=O)c2cc(OC)nc3ccccc23)cc1`, the luciferase activation was 0% (inactive).
Still for that read-out and setting: the figure for `Cc1cnc(NC(=O)c2cc(S(=O)(=O)N(C)C)ccc2N2CCCC2)s1` is 0% (inactive); for `COc1ccc(CSc2nnc(-c3ccccc3)o2)cc1` it is 50% (inactive).
Take `CCCOC(=O)c1[nH]c2c(c1C)C(=O)CC(c1cccs1)C2` (configuration not stated): the luciferase activation is 50% (inactive).
`Cc1ccc(Oc2ccc(S(=O)(=O)N3CCOCC3)cc2C(N)=O)c(-n2nc3ccccc3n2)c1`: the luciferase activation is 33.3% (inactive).
For the compound `CCn1c2ccccc2c2cc(NC(=O)c3cc(OC)c(OC)c(OC)c3)ccc21`, the luciferase activation was -33.3% (inactive).
For the compound `CCOC(=O)COc1cccc2c(=O)n(CC(=O)NCc3ccccc3)ccc12`, the luciferase activation is 0% (inactive).
`Cc1ccc2cc(CN(CCCN(C)C)C(=O)Nc3ccccc3)c(=O)[nH]c2c1C`: the luciferase activation was 0% (inactive).
Consider `Cc1ccc(C(=O)c2cc([N+](=O)[O-])ccc2N2CCOCC2)cc1C`, for which the luciferase activation is 66.7% (inactive).
On the same count and under the same terms, the figure for `COc1ccc2c(COC(=O)c3cccc(S(=O)(=O)NCC(C)C)c3)cc(=O)oc2c1` is 66.7% (inactive); for `Cc1cnc(NC(=O)c2cc(S(=O)(=O)N3CCCCC3)ccc2N2CCCC2)s1` it is 50% (inactive); for `Cc1cc(NC(=O)CSc2nc(-c3ccco3)cc(C(F)(F)F)n2)no1` it is 0% (inactive).
The same measure, in the same setting: the figure for `CN(C)S(=O)(=O)c1ccc(N2CCCC2)c(C(=O)Nc2ccccc2)c1` is 20% (inactive); for `Cc1cc(=O)[nH]c(N/N=C/c2cc(C)n(CC(F)(F)F)c2C)n1` it is 0% (inactive); for `CCCCOc1ccccc1C1CC(=O)NC2=C1C(=O)CCC2` (configuration not stated) it is 0% (inactive).
On the same count and under the same terms, the figure for `Cc1csc(NC(=O)c2cc(S(=O)(=O)N(C)C)ccc2N2CCCC2)n1` is 50% (inactive); for `O=C1CCN(Cc2ccccc2)c2cc3ccccc3cc21` it is 0% (inactive).
For the compound `CN(C)CCCN(Cc1cc2ccccc2[nH]c1=O)C(=O)NCc1ccccc1`, the luciferase activation was 0% (inactive).
Still for that read-out and setting: for `CC(=O)N1CCC(=O)c2cc3ccccc3cc21` the value was 33.3% (inactive).
Turning to `COc1ccc2nc(NC(=O)c3cc(S(=O)(=O)N(C)C)ccc3N3CCCC3)sc2c1`, the luciferase activation is 0% (inactive).
Still for that read-out and setting: for `Cc1cnc(NC(=O)c2cc(S(=O)(=O)N3CCOCC3)ccc2N2CCCC2)s1` the value was -20% (inactive); for `Cc1cnc(NC(=O)c2cc(S(=O)(=O)N(C)C)ccc2N2CCC2)s1`, -20% (inactive).
The same measure, in the same setting: the figure for `CCN(CC)CCC(=O)Nc1cccc2c1C(=O)c1ccccc1C2=O` is -33.3% (inactive); for `Cc1ccc(CCC(=O)Nc2ncc(Cc3cc(Cl)ccc3Cl)s2)o1` it is -33.3% (inactive).
Turning to `CC(=O)c1ccc(Oc2cc(C)nc(-n3nc(C)cc3C)n2)cc1`, the luciferase activation is 0% (inactive).
Still for that read-out and setting: the figure for `Brc1ccc(CSc2nnc(-c3ccccc3)o2)cc1` is 0% (inactive); for `Cc1cc(C)cc(C(=O)N2CC(=O)Nc3ccccc32)c1` it is 33.3% (inactive).
For `Cc1cnc(NC(=O)c2cc(S(=O)(=O)N3CCCC3)ccc2N2CCCC2)s1`, the luciferase activation was -20% (inactive).
On the same count and under the same terms, for `CC(=O)c1cccc(NC(=O)CSc2ncc(C(=O)Nc3ccccc3)c(=O)n2C)c1` the value was 33.3% (inactive); for `O=C(Cc1ccccc1)c1nnc(-c2ccccc2)o1`, 33.3% (inactive).
Still for that read-out and setting: the figure for `CC(=O)N[C@H]1[C@@H](O[C@@H]2OC(C[C@@H](O)C3O[C@@H](n4ccc(=O)[nH]c4=O)[C@H](O)[C@@H]3O)[C@H](O)[C@H](O)[C@H]2NC(=O)/C=C/CCCCCCCCCCC(C)C)O[C@H](CO)[C@@H](O)[C@@H]1O` (some centres not stated) is -50% (inactive); for `CCN(CC)CCOc1ccc2c(c1)C(=NNC(=O)c1ccccn1)c1cc(OCCN(CC)CC)ccc1-2` it is -33.3% (inactive).
On to `Cc1ccc2cc(CN(CCCN(C)C)C(=O)NCc3ccccc3)c(=O)[nH]c2c1C`, for which the luciferase activation was 50% (inactive).
Still for that read-out and setting: the figure for `COc1cc(C(=O)NCCOc2cc(C)cc(C)c2)cc(OC)c1OC` is 33.3% (inactive); for `COc1cc(Nc2c3c(nc4ccccc24)CCCC3)cc(OC)c1OC` it is 0% (inactive).
For the compound `Cc1cc(C)nc(/N=C(\N)Nc2ccc(OCc3ccccc3)cc2)n1`, the luciferase activation is -33.3% (inactive).
For `Cc1cccc(C)c1OCCNC(=O)C(=O)NCc1ccco1`, the luciferase activation was 33.3% (inactive).
As for `Cc1[nH][nH]c(=O)c1C(c1ccc(-c2ccc(Cl)c(Cl)c2)o1)c1c(C)[nH][nH]c1=O`, the luciferase activation is 0% (inactive).
On to `COc1cccc(N2CCN(C(=O)c3ccc(CS(=O)c4ccc(C)cc4)o3)CC2)c1` (configuration not stated), for which the luciferase activation is 0% (inactive).

For the origin of these results see PubChem BioAssay AID1053120 (Broad Institute, 2014).
